From US20230303495A9, “PYRIDINE OXYNITRIDE, PREPARATION METHOD THEREFOR AND USE THEREOF” (Orion Corporation, priority 2019, published 2023)
pIC50: −log10 of the molar value.

What follows are molecules tested against T1, NaV1.8 (Homo sapiens, UniProt Q9Y5Y9) (assay: Whole-cell patch clamp blocking activity against NaV1.8 channel current). Conditions: CHO cell line stably expressing Nav1.8 (SCN10A: NM_006514), patch clamp.
T1 construct: expressed in transfected cells
Format: cell-based
Procedure: 1. Test method: patch clamp technique was used to detect the influence of compounds on voltage-gated sodium channel (NaV) 1.1-1.8 subtype current
1) The specific information of the CHO cell line stably expressing the Nav1.8 channel was as follows: SCN10A: NM_006514
2) Cells were cultured in HAM'S/F-12 medium containing 10% fetal bovine serum and 10 μg/mL Blasticidin, 200 μg/mL Hygromycin B and 100 μg/mL Zeocin, culture temperature was 37° C. and the concentration of CO2 was 5%.
5) Patch clamp detection, before the experiment, the cells were separated with 0.25%—trypsin EDTA, inoculated into a 24 well plate with a density of 8*10^3 cells per well (final volume: 500 μL), tetracycline was added thereto, and experimental test was performed on the next day.
1) Extracellular fluid: 140 mM NaCl, 3.5 mM KCl, 2 mM CaCl2, 10 mM HEPES, 1.25 mM NaH2PO4, 1 mM MgCl2, 10 mM Glucose, pH=7.4 (NaOH).
2) Intracellular fluid: 50 mM CsCl, 10 mM NaCl, 10 mM HEPES, 20 mM EGTA, 60 mM CsF, pH=7.2 (CsOH).
The voltage stimulation scheme of whole-cell patch clamp recording of Nav channel current was as follows: first the membrane potential of the cell was clamped at −130 mV, and then the voltage was stepped to −40 mV or −20 mV at 10 mv step intervals for 8 s. The clamping voltage was maintained at −120 mV, and data was collected repeatedly every 20 seconds. The peak amplitude of its inward current was measured to determine its half-inactivation voltage.
The cell clamping potential was set at −120 mV. The resting and half-inactivation inhibition of sodium current was measured using double pulse mode. The double pulse mode was completed by two 0 mV depolarization test pulses (TP1 and TP2) lasting 50 ms. The conditional voltage between the two depolarization pulses was set near the half-inactivation voltage (lasting 8 s). […] The data acquisition was repeated at an interval of 20 s and the current peak was measured at the two test pulses.
When the current of the Nav channel recorded by the whole cell was stable, the drug was administered, after each drug concentration was applied for 5 minutes (or the current was stable), the next concentration would be tested, and multiple concentrations would be tested for each test compound. The cover glass covered with cells was placed in the recording bath of an inverted microscope, the test compound and the external liquid without compound flowed through the recording chambers in turns from low concentration to high concentration by gravity perfusion, so as to act on the cells, in the recording, the liquid exchange was carried out by vacuum pump. The current detected in each cell in the compound-free external fluid served as its own control group. Multiple cells were detected independently and repeatedly. All electrophysiological experiments were performed at room temperature.
First, the current after the action of each drug concentration and the blank control current were normalized, and then the blocking rate corresponding to each drug concentration was calculated. The mean and standard error were calculated for each concentration, and all the above values were calculated by Microsoft Excel 2013. In addition, the half-inhibitory concentration of each compound was calculated by IGOR software with the following equation: retardation rate=1/[1+(IC50/c)^h].
The dose-dependent effect was nonlinearly fitted with the above equation, wherein, c refers to the drug concentration, IC50 was the half inhibitory concentration, and h refers to the Hill coefficient. The curve fitting and the calculation of IC50 were completed by IGOR software (software version: 6.0.1.0).

T1 sequence (Q9Y5Y9 whole entry): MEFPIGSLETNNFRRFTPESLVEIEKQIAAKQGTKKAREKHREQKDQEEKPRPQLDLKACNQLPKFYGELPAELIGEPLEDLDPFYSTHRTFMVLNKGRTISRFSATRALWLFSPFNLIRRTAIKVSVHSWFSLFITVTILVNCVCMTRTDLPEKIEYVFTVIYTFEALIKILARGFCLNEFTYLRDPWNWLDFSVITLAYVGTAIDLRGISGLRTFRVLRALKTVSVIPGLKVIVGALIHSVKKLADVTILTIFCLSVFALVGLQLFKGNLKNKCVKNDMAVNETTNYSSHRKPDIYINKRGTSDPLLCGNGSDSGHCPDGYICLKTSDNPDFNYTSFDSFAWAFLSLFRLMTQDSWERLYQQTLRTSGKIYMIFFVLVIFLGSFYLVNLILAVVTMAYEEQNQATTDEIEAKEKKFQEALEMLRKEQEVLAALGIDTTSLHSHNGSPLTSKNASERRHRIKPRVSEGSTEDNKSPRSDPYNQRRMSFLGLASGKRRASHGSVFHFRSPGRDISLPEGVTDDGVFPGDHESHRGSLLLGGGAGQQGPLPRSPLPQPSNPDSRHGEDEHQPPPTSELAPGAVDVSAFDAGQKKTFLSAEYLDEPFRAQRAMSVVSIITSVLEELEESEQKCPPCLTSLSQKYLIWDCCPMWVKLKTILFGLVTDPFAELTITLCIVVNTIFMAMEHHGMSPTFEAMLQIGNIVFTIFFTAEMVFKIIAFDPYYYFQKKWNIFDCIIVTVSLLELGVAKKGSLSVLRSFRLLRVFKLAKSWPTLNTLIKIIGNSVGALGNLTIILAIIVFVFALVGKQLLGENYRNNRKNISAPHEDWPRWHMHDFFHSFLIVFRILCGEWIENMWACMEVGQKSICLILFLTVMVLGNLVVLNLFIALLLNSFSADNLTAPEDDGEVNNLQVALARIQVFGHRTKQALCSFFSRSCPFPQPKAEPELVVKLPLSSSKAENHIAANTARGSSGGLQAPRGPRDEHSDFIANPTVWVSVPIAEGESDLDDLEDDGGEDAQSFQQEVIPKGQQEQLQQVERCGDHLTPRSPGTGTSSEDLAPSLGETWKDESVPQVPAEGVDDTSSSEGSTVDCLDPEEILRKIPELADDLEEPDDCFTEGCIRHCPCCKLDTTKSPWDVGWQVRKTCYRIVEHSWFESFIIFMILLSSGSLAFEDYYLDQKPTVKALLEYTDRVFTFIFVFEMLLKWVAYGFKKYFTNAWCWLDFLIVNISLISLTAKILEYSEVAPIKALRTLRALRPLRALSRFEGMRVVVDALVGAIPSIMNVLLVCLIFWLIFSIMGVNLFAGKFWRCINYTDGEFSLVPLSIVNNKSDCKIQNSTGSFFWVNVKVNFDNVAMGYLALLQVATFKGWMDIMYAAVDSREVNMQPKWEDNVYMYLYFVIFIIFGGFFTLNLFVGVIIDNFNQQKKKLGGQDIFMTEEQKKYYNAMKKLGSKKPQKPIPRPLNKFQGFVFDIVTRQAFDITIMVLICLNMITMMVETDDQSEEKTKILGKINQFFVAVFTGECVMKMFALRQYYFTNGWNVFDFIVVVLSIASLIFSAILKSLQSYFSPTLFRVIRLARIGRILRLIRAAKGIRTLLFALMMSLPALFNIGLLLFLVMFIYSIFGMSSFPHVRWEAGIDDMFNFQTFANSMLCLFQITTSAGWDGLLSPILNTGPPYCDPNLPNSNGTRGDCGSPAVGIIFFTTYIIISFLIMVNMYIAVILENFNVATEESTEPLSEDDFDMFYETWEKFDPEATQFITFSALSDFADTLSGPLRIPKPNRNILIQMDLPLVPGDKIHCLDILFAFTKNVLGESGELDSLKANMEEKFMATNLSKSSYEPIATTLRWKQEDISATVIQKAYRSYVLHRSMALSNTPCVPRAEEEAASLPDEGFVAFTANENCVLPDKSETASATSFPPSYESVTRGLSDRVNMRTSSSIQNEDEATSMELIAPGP

SMILES | pIC50
O=C(Nc1cc[n+]([O-])nc1)c1cc(Cl)c(Cl)cc1Oc1ccc(OC(F)(F)F)c(F)c1 [Embodiment A37] | 8.49
COc1cc(F)ccc1Oc1cc(C(F)(F)F)c(Cl)cc1C(=O)Nc1ccc[n+]([O-])c1 [Embodiment A85] | 8.77
O=C(Nc1ccc[n+]([O-])c1)c1cc(Cl)c(C(F)(F)F)cc1Oc1ccc(F)cc1C1CC1 [Embodiment A106] | 8.52
O=C(Nc1ccc[n+](O)c1)c1c(Oc2ccc(OC(F)(F)F)cc2)ccc(Br)c1F [Embodiment A74] | 8.46
O=C(Nc1ccc[n+](O)c1)c1c(Oc2ccc(OC(F)(F)F)cc2)ccc(C(F)(F)F)c1Cl [Embodiment A57] | 8.74
O=C(Nc1ccc[n+]([O-])c1)c1c(Oc2ccc(OC(F)(F)F)cc2)ccc(I)c1F [Embodiment A73] | 8.49
COc1cc(F)ccc1Oc1cc(C(F)(F)F)c(Cl)c(F)c1C(=O)Nc1ccc[n+]([O-])c1 [Embodiment A86] | 10.10
O=C(Nc1ccc[n+](O)c1)c1c(Oc2ccc(OC(F)(F)F)cc2)ccc(OC(F)(F)F)c1F [Embodiment A19] | 8.00
O=C(Nc1cc[n+]([O-])nc1)c1c(F)cc(C(F)(F)F)cc1Oc1ccc(OC(F)(F)F)cc1 [Embodiment A80] | 8.08
O=C(Nc1ccc[n+](O)c1)c1c(Oc2ccc(OC(F)(F)F)cc2)ccc(C(F)(F)F)c1F [Embodiment A42] | 8.44
O=C(Nc1cc[n+]([O-])nc1)c1c(Oc2ccc(OC(F)(F)F)cc2)ccc(Br)c1F [Embodiment A33] | 8.34
COc1cc(F)ccc1Oc1cc(Cl)c(Cl)cc1C(=O)Nc1ccc[n+]([O-])c1 [Embodiment A5] | 8.13

Same assay, conditions: against NaV1.8 at 100 nM, CHO cell line stably expressing Nav1.8, patch clamp

SMILES | Blocking rate (%) @100 nM [%]
O=C(Nc1ccc[n+](O)c1)c1c(Oc2ccc(OC(F)(F)F)cc2Cl)ccc(C(F)(F)F)c1F [Embodiment A54] | 94.99
O=C(Nc1ccc[n+]([O-])c1)c1c(Oc2ccc(F)cc2Cl)ccc(C(F)(F)F)c1F [Embodiment A50] | 79.66
O=C(Nc1ccc[n+]([O-])c1)c1c(Oc2ccc(OC(F)(F)F)cc2F)ccc(C(F)(F)F)c1F [Embodiment A52] | 80.75
O=C(Nc1ccc[n+]([O-])c1)c1c(Oc2ccc(OCC(F)(F)F)cc2)cc(Cl)c(Cl)c1F [Embodiment A101] | 98.47
O=C(Nc1ccc[n+]([O-])c1)c1cc(C(F)(F)F)c(C2CC2)cc1Oc1ccc(OC(F)(F)F)cc1 [Embodiment A97] | 86.65
O=C(Nc1cc[n+]([O-])cc1)c1c(Oc2ccc(OC(F)(F)F)cc2)cnc(C(F)(F)F)c1Cl [Embodiment A102] | 82.71
O=C(Nc1ccn[n+]([O-])c1)c1c(Oc2ccc(OC(F)(F)F)cc2)ccc(C(F)(F)F)c1F [Embodiment A45] | 78.46
O=C(Nc1cc[n+]([O-])nc1)c1c(Oc2ccc(OC(F)(F)F)cc2)ccc(I)c1F [Embodiment A23] | 97.04
O=C(Nc1ccc[n+]([O-])c1)c1c(Oc2ccc(OCC(F)(F)F)cc2)ccc(Br)c1Cl [Embodiment A31] | 88.88
O=C(Nc1ccc[n+]([O-])c1)c1c(Oc2ccc(OC(F)(F)F)cc2)cc(Cl)c(C(F)(F)F)c1F [Embodiment A40] | 99.91
O=C(Nc1cc[n+]([O-])cc1)c1c(Oc2ccc(OC(F)(F)F)cc2)cc(Cl)c(Cl)c1F [Embodiment A100] | 97.60
O=C(Nc1ccc[n+]([O-])c1)c1c(Cl)cc(C(F)(F)F)cc1Oc1ccc(OC(F)(F)F)cc1 [Embodiment A29] | 87.63
O=C(Nc1ccc[n+](O)c1)c1c(Oc2ccc(OC(F)(F)F)c(F)c2)cnc(C(F)(F)F)c1F [Embodiment A62] | 89.79
O=C(Nc1ccc[n+]([O-])c1)c1cc(Cl)c(C2CC2)cc1Oc1ccc(OC(F)(F)F)cc1 [Embodiment A95] | 93.84
COc1cc(Oc2ccc(OC(F)(F)F)cc2)c(C(=O)Nc2ccc[n+]([O-])c2)c(F)c1C(F)(F)F [Embodiment A78] | 96.55
O=C(Nc1ccn[n+]([O-])c1)c1cc(Cl)c(Cl)cc1Oc1ccc(OC(F)(F)F)cc1 [Embodiment A36] | 87.40

SMILES | Blocking rate (%) @100 nM [%]
Cc1cc(F)ccc1Oc1cc(C(F)(F)F)c(Br)cc1C(=O)Nc1ccc[n+]([O-])c1 [Embodiment A107] | 95.60
COc1c(Cl)c(C(F)(F)F)cc(Oc2ccc(F)cc2C)c1C(=O)Nc1ccc[n+]([O-])c1 [Embodiment A105] | 98.42
Cc1cc(Oc2ccc(OC(F)(F)F)cc2)c(C(=O)Nc2ccc[n+]([O-])c2)cc1C(F)(F)F [Embodiment A90] | 89.50
O=C(Nc1ccc[n+](O)c1)c1c(Oc2ccc(OCC(F)(F)F)cc2)ccc(C(F)(F)F)c1F [Embodiment A53] | 85.77
O=C(Nc1ccc[n+]([O-])c1)c1cc(Cl)c(OC(F)(F)F)cc1Oc1ccc(OC(F)(F)F)cc1 [Embodiment A91] | 92.81
O=C(Nc1cc[n+]([O-])cc1)c1c(Oc2ccc(OC(F)(F)F)cc2)ccc(C(F)(F)F)c1F [Embodiment A44] | 77.61
O=C(Nc1ccc[n+]([O-])c1)c1cc(Cl)c(C(F)(F)F)cc1Oc1ccc(F)cc1OC1CC1 [Embodiment A108] | 96.92
O=C(Nc1cc[n+]([O-])nc1)c1c(Oc2ccc(OC(F)(F)F)cc2)cnc(C(F)(F)F)c1Cl [Embodiment A65] | 93.18
O=C(Nc1ccc[n+]([O-])c1)c1c(Oc2ccc(OC(F)(F)F)cc2)ccc(Cl)c1F [Embodiment A75] | 88.87
O=C(Nc1ccc[n+]([O-])c1)c1c(Oc2ccc(OC(F)(F)F)cc2)cnc(C(F)(F)F)c1Cl [Embodiment A63] | 93.13
O=C(Nc1cc[n+]([O-])c(Cl)c1)c1c(Oc2ccc(OC(F)(F)F)cc2)ccc(C(F)(F)F)c1F [Embodiment A43] | 76.10
Cc1cc(F)ccc1Oc1cc(S(F)(F)(F)(F)F)ccc1C(=O)Nc1ccc[n+]([O-])c1 [Embodiment A8] | 81.85
Cc1cc(F)ccc1Oc1cc(C(F)(F)F)c(Br)c(F)c1C(=O)Nc1ccc[n+]([O-])c1 [Embodiment A110] | 98.75
O=C(Nc1ccc[n+]([O-])c1)c1c(Oc2ccc(OC(F)(F)F)cc2)cnc(C(F)(F)F)c1F [Embodiment A59] | 87.57
O=C(Nc1ccc[n+]([O-])c1)c1c(Oc2ccc(F)cc2C2CC2)cc(C(F)(F)F)c(Cl)c1F [Embodiment A111] | 99.42
O=C(Nc1ccn[n+]([O-])c1)c1c(Oc2ccc(OC(F)(F)F)cc2)ccc(Br)c1F [Embodiment A34] | 90.16
